Reference: patent US20120121591A1 (priority 2009, published 2012)

Legend:
[1] = target: hKv1.3 (Homo sapiens, UniProt P22001); test: cell-based; type: cell-based; conditions: Kv1.3 (IWQ) IC50 (nM, Avg)
[2] = tested on: IFN-g secretion from T cells in human whole blood; type: cell-based; conditions: read-out: WB (IFNg) IC5- (nM, Avg)

hKv1.3, sequence (P22001 whole entry): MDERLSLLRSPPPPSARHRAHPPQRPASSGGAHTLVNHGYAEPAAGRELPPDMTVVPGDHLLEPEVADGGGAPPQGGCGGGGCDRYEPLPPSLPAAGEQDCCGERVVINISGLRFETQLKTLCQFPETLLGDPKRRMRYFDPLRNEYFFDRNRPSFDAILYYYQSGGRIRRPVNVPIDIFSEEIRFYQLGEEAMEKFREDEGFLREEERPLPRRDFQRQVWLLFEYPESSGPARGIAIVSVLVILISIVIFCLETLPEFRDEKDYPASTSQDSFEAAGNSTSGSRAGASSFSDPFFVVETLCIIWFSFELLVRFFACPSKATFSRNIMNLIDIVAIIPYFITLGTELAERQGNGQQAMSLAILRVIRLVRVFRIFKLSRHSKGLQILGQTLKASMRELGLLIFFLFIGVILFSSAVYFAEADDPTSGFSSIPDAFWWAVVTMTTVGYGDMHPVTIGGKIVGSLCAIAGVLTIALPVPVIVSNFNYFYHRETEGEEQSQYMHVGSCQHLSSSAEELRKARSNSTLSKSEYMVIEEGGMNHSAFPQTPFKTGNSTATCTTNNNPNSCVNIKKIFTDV

Compound	IC50 [1] [nM]	IC50 [2] [nM]
CC[C@H](C)[C@@H]1NC(=O)[C@@H](NC(=O)[C@H](CO)NC(=O)[C@@H](N)CCCNC(=N)N)CSSC[C@@H](C(=O)O)NC(=O)[C@H]([C@@H](C)O)NC(=O)CNC(=O)[C@@H]2CSSC[C@@H]3NC(=O)[C@H](CCC(N)=O)NC(=O)[C@H](Cc4ccccc4)NC(=O)[C@H](C)NC(=O)[C@H]([C@@H](C)O)NC(=O)[C@H](CSSC[C@H](NC(=O)[C@H](Cc4ccccc4)NC(=O)[C@H](CO)NC(=O)[C@H](CC(C)C)NC(=O)[C@H](CCCNC(=N)N)NC(=O)[C@H](CCCNC(=N)N)NC(=O)[C@H](CCCCN)NC(=O)[C@H](CCSC)NC(=O)[C@H](CO)NC(=O)[C@H](Cc4cnc[nH]4)NC(=O)[C@H](CCCCN)NC3=O)C(=O)N[C@@H](CCCNC(=N)N)C(=O)N[C@@H](CCCCN)C(=O)N[C@@H]([C@@H](C)O)C(=O)N2)NC(=O)[C@H](CCCNC(=N)N)NC(=O)[C@H](CO)NC(=O)[C@H](CCCCN)NC(=O)[C@@H]2CCCN2C(=O)[C@H]([C@@H](C)CC)NC(=O)[C@H]([C@@H](C)O)NC(=O)[C@H](CC(=O)O)NC1=O [[Arg23]ShK]	0.154	–
CC[C@H](C)[C@@H]1NC(=O)[C@@H](NC(=O)[C@H](CO)NC(=O)[C@@H](N)CCCNC(=N)N)CSSC[C@@H](C(=O)O)NC(=O)[C@H]([C@@H](C)O)NC(=O)CNC(=O)[C@@H]2CSSC[C@@H]3NC(=O)[C@H](CCC(N)=O)NC(=O)[C@H](Cc4ccccc4)NC(=O)[C@H](C)NC(=O)[C@H]([C@@H](C)O)NC(=O)[C@H](CSSC[C@H](NC(=O)[C@H](Cc4ccccc4)NC(=O)[C@H](CO)NC(=O)[C@H](CC(C)C)NC(=O)[C@H](CCCNC(=N)N)NC(=O)[C@H](Cc4ccc(O)cc4)NC(=O)[C@H](CCCCN)NC(=O)[C@H](CCSC)NC(=O)[C@H](CO)NC(=O)[C@H](Cc4c[nH]cn4)NC(=O)[C@H](CCCCN)NC3=O)C(=O)N[C@@H](CCCNC(=N)N)C(=O)N[C@@H](CCCCN)C(=O)N[C@@H]([C@@H](C)O)C(=O)N2)NC(=O)[C@H](CCCNC(=N)N)NC(=O)[C@H](CO)NC(=O)[C@H](CCCCN)NC(=O)[C@H](CCC(=O)O)NC(=O)[C@H]([C@@H](C)CC)NC(=O)[C@H]([C@@H](C)O)NC(=O)[C@H](CC(=O)O)NC1=O [[Glu8]ShK]	0.097	0.238
CC[C@H](C)[C@@H]1NC(=O)[C@@H](NC(=O)[C@H](CO)NC(=O)[C@@H](N)CCCNC(=N)N)CSSC[C@@H](C(=O)O)NC(=O)[C@H]([C@@H](C)O)NC(=O)CNC(=O)[C@@H]2CSSC[C@@H]3NC(=O)[C@H](CCC(N)=O)NC(=O)[C@H](Cc4ccccc4)NC(=O)[C@H](C)NC(=O)[C@H]([C@@H](C)O)NC(=O)[C@H](CSSC[C@H](NC(=O)[C@H](Cc4ccccc4)NC(=O)[C@H](CO)NC(=O)[C@H](CC(C)C)NC(=O)[C@H](CCCNC(=N)N)NC(=O)[C@H](Cc4ccc(O)cc4)NC(=O)[C@H](CCCCN)NC(=O)[C@H](CCSC)NC(=O)[C@H](CO)NC(=O)[C@H](Cc4cnc[nH]4)NC(=O)[C@H](CCCCN)NC3=O)C(=O)N[C@@H](CCCNC(=N)N)C(=O)N[C@@H](CCCCN)C(=O)N[C@@H]([C@@H](C)O)C(=O)N2)NC(=O)[C@H](CCCNC(=N)N)NC(=O)[C@H](CO)NC(=O)[C@H](CCCCN)NC(=O)[C@@H]2CCCN2C(=O)[C@H]([C@@H](C)CC)NC(=O)[C@H]([C@@H](C)O)NC(=O)[C@H](CCCCN)NC1=O [[Lys5]ShK]	3.3	–
